Source: patent US9592223B2, “Small molecule inhibitors of MALT1” (Cornell University, priority 2012, dated 2017)

Experiments:
[1] = target: T1, paracaspase domain of MALT1 (residues 329-728) (Homo sapiens, UniProt Q9UDY8); assay: HSQC NMR binding; conditions: HSQC titration
T1 construct: labeled MALT1 (329-728) was expressed in BL21 (DE3) E. coli; made in house; host or cells: E. coli BL21 (DE3)
Description: Uniformly ^15N and ^13C labeled MALT1 (329-728) was expressed in BL21 (DE3) E. coli growing in M9 medium containing 1 g/l [^15N]ammonium chloride and 3 g/l [^13C]glucose (Cambridge Isotope Labs, Andover, Mass.) and purified from E. coli cell lysate as described in (Wiesmann et al., 2012).
Standard 2D ^1H ^13C NMR spectra of MALT1 (329-728) were recorded in samples containing 10.0 mg/ml protein in 50 mM HEPES (pH 7.5), 50 mM NaCl, and 10% D2O. NMR spectroscopy experiments were recorded on Bruker AV 500 MHz spectrometer (Bruker, Billerica, Mass.), at 310K.
Standard 2D ^1H ^15N HSQC spectra of MALT1 (329-728) were recorded in samples containing 70 μM protein in 25 mM Tris pH 7.5, 250 mM NaCl, 5 mM DTT, 10% D2O, 0.02% NaN3, 2% DMSO. HSQCs were run on a 600 MHz Varian (Varian, Palo Alto, Calif.) at 37° C.

[2] = system: ABC-DLBCL cell lines (HBL1 and TMD8); assay: Caspase-3/7 cleavage assay for apoptosis; assay type: cell-based, human
[3] = system: HBL-1 and TMD8 cells; assay: Trypan blue exclusion and Annexin V+ DAPI- apoptosis over 14 days, ABC-DLBCL lines; assay type: cell-based, human; conditions: treated daily at GI25 and GI50, every 48 hr for 14 days
Description: Cell proliferation was examined using the CFSE dilution assay by flow cytometry on viable cells at 48, 72 and 96 h. […] Trypan blue exclusion and apoptosis assessed by Annexin V^+ DAPI^− flow cytometry was measured every 48 hr for a period of 14 days.
Apoptosis was assessed by AnnexinV-APC/DAPI (BD Pharmingen) staining followed by flow cytometry.

[4] = system: OCI-Ly1 xenografts; assay: OCI-Ly1 xenograft in NOD-SCID mice; assay type: in vivo; conditions: IP 25 mg/kg/day
Description: Animals were sacrificed 24 hr after the fourteenth injection.
Eight-week old male SCID NOD.CB17-Prkdc^scid/J mice were subcutaneously injected with low-passage 10^7 human HBL-1, TMD8 or OCI-Ly1 cells. Treatment was administered by intra-peritoneal injection. Tumor volume was monitored by three-weekly digital calipering. All procedures followed US NIH protocols and were approved by the Animal Institute Committee of the Weill Cornell Medical College.
Eight-week old male SCID NOD.CB17-Prkdc^scid/J mice were purchased from Jackson Laboratories (Bar Harbor, Minn.) and housed in a clean environment. Mice were subcutaneously injected with low-passage 10^7 human TMD8 or OCI-Ly1 cells in 50% matrigel (BD Biosciences, #354234). Treatment was initiated when tumors reached an average size of 120 mm^3 (17 days post-transplantation). Drugs were reconstituted in DMSO and stored at −80° C. until used and were administered by intra-peritoneal injection. Tumor volume was monitored by three-weekly digital calipering (Fisher Scientific, Thermo Scientific, Rockford, Ill.) and calculated using the formula (smallest diameter^2×largest diameter)/2. Data were expressed as mean±SEM, and differences were considered statistically significant at p<0.05 by paired Student's t-test. […]

[5] = system: cleavage of A20, BCL10 and RELB; assay: Cleavage of MALT1 substrates with MG-132 in HBL-1 and TMD8 cell lines, Western blot; assay type: cell-based, human; conditions: 2 μM for 30 minutes, then 5 μM MG-132 for one or two hour
Description: As these proteins are directed to proteasomal degradation after cleavage (Coornaert et al., 2008; Hailfinger et al., 2011; Rebeaud et al., 2008), we used the proteasome inhibitor MG-132 to facilitate visualization of cleavage products (FIG. 4A).
Equal amounts of total protein (20-75 μg) were separated on sodium dodecyl sulfate-polyacrylamide gel electrophoresis (SDS-PAGE), and electrotransferred onto nitrocellulose membranes. Membranes were incubated with primary antibodies (MALT1, BCL-10, CYLD from Santa Cruz Biotechnologies, Santa Cruz, Calif.; A20 from eBioscience, San Diego, Calif.; phospho-IκB-α, IκB-α, c-REL, RELB from Cell Signaling, Danvers, Mass. and α-Tubulin from Sigma), followed by secondary antibodies conjugated to horseradish peroxidase, which were detected by chemiluminescence (Pierce, Thermo Scientific, Rockford, Ill.).

T1 sequence (Q9UDY8 329-728): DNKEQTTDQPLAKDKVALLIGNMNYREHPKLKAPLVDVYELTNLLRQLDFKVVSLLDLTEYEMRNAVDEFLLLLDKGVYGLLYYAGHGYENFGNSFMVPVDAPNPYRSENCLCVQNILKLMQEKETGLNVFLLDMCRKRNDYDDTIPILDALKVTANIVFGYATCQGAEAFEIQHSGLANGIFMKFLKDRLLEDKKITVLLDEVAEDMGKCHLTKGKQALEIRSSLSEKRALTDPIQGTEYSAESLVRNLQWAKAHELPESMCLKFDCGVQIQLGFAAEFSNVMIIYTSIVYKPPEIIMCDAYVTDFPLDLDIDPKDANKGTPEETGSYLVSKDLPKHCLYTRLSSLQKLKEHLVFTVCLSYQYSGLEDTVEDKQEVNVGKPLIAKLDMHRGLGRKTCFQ

COCCOc1nc(-c2ccc(Cl)c(Cl)c2)n(-c2ccc(NC(=O)CCl)cc2)n1 [MI-2]
binding by NMR spectroscopy [1]: robust interaction
apoptosis (Caspase-3/7 cleavage) [2]: dose dependent apoptosis within 48 hr
viability and apoptosis [3]: profoundly suppressed
tumor growth vs. vehicle ([4]; fourteen injections, p=0.47): no effect on the growth
proliferation (Ki-67 staining) ([4]; p=1.0): no difference
cleaved forms of A20, BCL10 and RELB [5]: diminished the abundance of cleaved forms and/or increased the abundance of full-length proteins
